# Measured values as given in the supplement of paper PMC10307832.
# Compound: COC1=CC=C(C=C1)CN2C=CC3=C2C=C(C=C3)C(=O)NO + Cc1nc(Nc2ncc(C(=O)Nc3c(C)cccc3Cl)s2)cc(N2CCN(CCO)CC2)n1 [Dasatinib] (partner 0.075 µM)
# Assay: relative viability (nuclei count vs DMSO), 5 days (fraction); higher = more cells survive
# Settings: first compound 8 µM
# Procedure, shortened: (§1)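 Lung cancer cell lines in 1536-well plates got either a single drug or a fixed anchor-drug dose together with five library-drug doses (not always all listed) in √10 steps, by pin tool, on the day after seeding. Nuclei were counted after 5 days, and relative viability is the treated-to-vehicle ratio of nuclei counts. Values are medians of duplicate plates.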
row,Cell Line,relative viability
1,NCI-H1792,0.715
2,HCC-366,0.574

# Compound: COC1=CC=C(C=C1)CN2C=CC3=C2C=C(C=C3)C(=O)NO + O=C(CCCCCCC(=O)Nc1ccccc1)NO [Vorinostat] (partner 1 µM)
# Assay: as above
# Settings: first compound 0.08 µM
# Procedure, shortened: as §1
row,Cell Line,relative viability
1,NCI-H2342,0.591
2,NCI-H1975,0.676
3,H3255,0.34
4,NCI-H2023,0.256
5,NCI-H2405,0.782
6,SK-LU-1,0.527
7,NCI-H1437,0.684
8,NCI-H596,0.587
9,HCC-15,0.544
10,NCI-H460,0.508
11,EMC-BAC-2,0.257
12,IA-LM,0.801
13,NCI-H2009,0.498
14,COR-L 105,0.489
15,NCI-H520,0.601
16,NCI-H1648,0.373
17,HCC-78,0.403
18,EKVX,0.646
19,NCI-H1650,0.354
20,LK-2,0.172
21,HCC-44,1.09
22,HCC-366,0.107

# Same assay, conditions: first compound 0.253 µM
row,Cell Line,relative viability
1,NCI-H2342,0.738
2,LU99A,0.504
3,NCI-H1975,0.779
4,H3255,0.739
5,NCI-H2023,0.631
6,SK-LU-1,0.753
7,NCI-H1734,0.882
8,NCI-H1437,0.766
9,ABC-1,0.517
10,NCI-H596,0.536
11,HCC-15,0.951
12,NCI-H460,0.736
13,NCI-H2009,0.751
14,COR-L 105,0.802
15,NCI-H1395,0.634
16,NCI-H520,0.775
17,NCI-H1648,0.515
18,NCI-H358,0.721
19,HCC-78,0.484
20,EKVX,0.843
21,NCI-H1650,0.557
22,EPLC-272H,0.619
23,LK-2,0.291
24,HCC-44,1.06
25,HCC-366,0.303

# Same assay, conditions: first compound 0.8 µM
row,Cell Line,relative viability
1,NCI-H2342,0.694
2,LU99A,0.581
3,NCI-H1975,0.752
4,H3255,0.842
5,NCI-H2023,0.619
6,NCI-H2405,0.984
7,SK-LU-1,0.771
8,NCI-H1734,0.779
9,NCI-H1437,0.881
10,ABC-1,1.13
11,NCI-H596,0.589
12,HCC-15,0.828
13,NCI-H460,0.758
14,EMC-BAC-2,0.568
15,IA-LM,0.971
16,NCI-H2009,0.722
17,COR-L 105,0.828
18,NCI-H1395,0.816
19,NCI-H520,0.682
20,NCI-H1648,0.337
21,NCI-H358,0.703
22,HCC-78,0.431
23,EKVX,0.803
24,NCI-H1650,0.595
25,EPLC-272H,0.55
26,LK-2,0.282
27,HCC-44,1.18
28,HCC-366,0.385

# Same assay, conditions: first compound 2.53 µM
row,Cell Line,relative viability
1,NCI-H2342,0.701
2,LU99A,0.418
3,NCI-H1975,0.74
4,H3255,0.849
5,NCI-H2023,0.647
6,NCI-H2405,1.03
7,SK-LU-1,0.718
8,NCI-H1734,0.731
9,NCI-H1437,0.891
10,ABC-1,0.973
11,NCI-H596,0.708
12,HCC-15,0.926
13,NCI-H460,0.783
14,EMC-BAC-2,0.429
15,IA-LM,1.05
16,NCI-H2009,0.75
17,COR-L 105,0.815
18,NCI-H1395,0.84
19,NCI-H520,0.664
20,NCI-H1648,0.528
21,NCI-H358,0.606
22,HCC-78,0.523
23,EKVX,0.897
24,NCI-H1650,0.684
25,EPLC-272H,0.404
26,LK-2,0.308
27,HCC-44,1.14
28,HCC-366,0.407

# Same assay, conditions: first compound 8 µM
row,Cell Line,relative viability
1,NCI-H2342,0.788
2,LU99A,0.352
3,NCI-H1975,0.701
4,H3255,0.731
5,NCI-H2023,0.654
6,NCI-H2405,0.896
7,SK-LU-1,0.691
8,NCI-H1734,0.658
9,NCI-H1437,1.01
10,ABC-1,1.02
11,NCI-H596,0.778
12,HCC-15,0.754
13,NCI-H460,0.57
14,EMC-BAC-2,0.36
15,IA-LM,0.961
16,NCI-H2009,0.708
17,COR-L 105,0.63
18,NCI-H1395,0.574
19,NCI-H520,0.712
20,NCI-H1648,0.406
21,NCI-H358,0.528
22,HCC-78,0.411
23,EKVX,0.672
24,NCI-H1650,0.532
25,EPLC-272H,0.3
26,LK-2,0.221
27,HCC-44,1.12
